As for `O=C(Nc1ccc(C(F)(F)F)cc1)N[C@H](Cc1ccc(C(F)(F)F)cc1)[C@@H](O)c1ccc(F)cc1` (racemic) [Example 119, N-((1RS,2SR)-2-(4-fluorophenyl)-2-hydroxy-1-((4-(trifluoromethyl)phenyl)methyl)ethyl)-N′-(4-(trifluoromethyl)phenyl)urea], the melting point was in the range of 160 to 161 °C.
For `CN(C(=O)c1cccc2ccccc12)[C@H](Cc1ccc(C(F)(F)F)cc1)[C@@H](O)c1ccc(F)cc1` (racemic) [Example 121, N-((1RS,2SR)-2-(4-fluorophenyl)-2-hydroxy-1-((4-(trifluoromethyl)phenyl)methyl)ethyl)-N-methyl-1-naphthalenecarboxamide], the melting point was in the range of 196 to 197 °C.
On to `CC1=Cc2c(cccc2C(=O)N[C@H](Cc2cccc(OC(F)(F)C(F)F)c2)[C@@H](O)c2ccc(F)cc2)CCC1` (racemic) [Example 127, N-[(1RS,2SR)-2-(4-fluorophenyl)-2-hydroxy-1-[3-(1,1,2,2-tetrafluoroethoxy)benzyl]ethyl]-8-methyl-6,7-dihydro-5H-benzo[a]cycloheptene-1-carboxamide], for which the melting point lay within 149 to 150 °C.
Compound `O=C(N[C@H](Cc1cccc(OC(F)(F)C(F)F)c1)[C@@H](O)c1ccc(F)cc1)c1cccc2c1OCCCO2` (racemic) [Example 128, N-[(1RS,2SR)-2-(4-fluorophenyl)-2-hydroxy-1-[3-(1,1,2,2-tetrafluoroethoxy)benzyl]ethyl]-3,4-dihydro-2H-1,5-benzodioxepine-6-carboxamide] registered a melting point of 147 to 148 °C.
`CCOC(=O)N[C@H](Cc1cccc(OC(F)(F)C(F)F)c1)[C@@H](O)c1ccc(F)cc1` (racemic) [Example 129, ethyl N-[(1RS,2SR)-2-(4-fluorophenyl)-2-hydroxy-1-[3-(1,1,2,2-tetrafluoroethoxy)benzyl]ethyl]carbamate]: the melting point was 113 to 114 °C.
Under `CC(C)(C)OC(=O)N[C@H](Cc1cccc(OC(F)(F)C(F)F)c1)[C@@H](O)c1ccc(F)cc1` (racemic) [Example 130, tert-butyl N-[(1RS,2SR)-2-(4-fluorophenyl)-2-hydroxy-1-[3-(1,1,2,2-tetrafluoroethoxy)benzyl]ethyl]carbamate] stands 145 to 146 °C.
The value for `O=C(N[C@H](Cc1ccc(OC(F)(F)C(F)F)cc1)[C@@H](O)c1ccc(F)cc1)c1ccc(F)c2ccccc12` (racemic) [Example 131, 4-fluoro-N-[(1RS,2SR)-2-(4-fluorophenyl)-2-hydroxy-1-[4-(1,1,2,2-tetrafluoroethoxy)benzyl]ethyl]naphthalene-1-carboxamide] was 192 to 193 °C.
The compound `O=C(N[C@H](Cc1cccc(OC(F)(F)F)c1)[C@@H](O)c1ccc(F)cc1)c1ccc(F)c2ccccc12` (racemic) [Example 132, 4-fluoro-N-[(1RS,2SR)-2-(4-fluorophenyl)-2-hydroxy-1-[3-(trifluoromethoxy)benzyl]ethyl]naphthalene-1-carboxamide] displayed a melting point of 189 to 190 °C.
Under `O=C(N[C@H](Cc1cccc(OC(F)(F)F)c1)[C@@H](O)c1ccc(F)cc1)c1cccc2c1C=CCCC2` (racemic) [Example 133, N-[(1RS,2SR)-2-(4-fluorophenyl)-2-hydroxy-1-[3-(trifluoromethoxy)benzyl]ethyl]-6,7-dihydro-5H-benzo[a]cycloheptene-1-carboxamide] stands 177 to 178 °C.
The value for `O=C(N[C@H](Cc1ccc(OC(F)(F)F)cc1)[C@@H](O)c1ccc(F)cc1)c1ccc(F)c2ccccc12` (racemic) [Example 134, 4-fluoro-N-[(1RS,2SR)-2-(4-fluorophenyl)-2-hydroxy-1-[4-(trifluoromethoxy)benzyl]ethyl]naphthalene-1-carboxamide] was 230 to 231 °C; that for `O=C(N[C@H](Cc1ccc(OC(F)(F)F)cc1)[C@@H](O)c1ccc(F)cc1)c1cccc2c1C=CCCC2` (racemic) [Example 135, N-[(1RS,2SR)-2-(4-fluorophenyl)-2-hydroxy-1-[4-(trifluoromethoxy)benzyl]ethyl]-6,7-dihydro-5H-benzo[a]cycloheptene-1-carboxamide] was 202 to 203 °C; that for `O=C(N[C@H](Cc1cccc(C(F)(F)F)c1)[C@@H](O)c1ccc(F)cc1)c1cccc2ccccc12` (racemic) [Example 136, N-((1RS,2SR)-2-(4-fluorophenyl)-2-hydroxy-1-((3-(trifluoromethyl)phenyl)methyl)ethyl)-1-naphthalenecarboxamide] was 158 to 159 °C.
The value for `O=C(N[C@H](Cc1cccc(C(F)(F)F)c1)[C@@H](O)c1ccc(F)cc1)c1ccc(F)c2ccccc12` (racemic) [Example 137, 4-fluoro-N-((1RS,2SR)-2-(4-fluorophenyl)-2-hydroxy-1-((3-(trifluoromethyl)phenyl)methyl)ethyl)-1-naphthalenecarboxamide] was 193 to 194 °C; that for `O=C(N[C@H](Cc1cccc(C(F)(F)F)c1)[C@@H](O)c1ccc(F)cc1)C1CCCCC1` (racemic) [Example 138, N-((1RS,2SR)-2-(4-fluorophenyl)-2-hydroxy-1-((3-(trifluoromethyl)phenyl)methyl)ethyl)cyclohexanecarboxamide] was 190 to 191 °C; that for `O=C(CCCc1ccccc1)N[C@H](Cc1cccc(C(F)(F)F)c1)[C@@H](O)c1ccc(F)cc1` (racemic) [Example 139, N-((1RS,2SR)-2-(4-fluorophenyl)-2-hydroxy-1-((3-(trifluoromethyl)phenyl)methyl)ethyl)-4-phenylbutyramide] was 110 to 111 °C.
On to `O=C(N[C@H](Cc1ccccc1C(F)(F)F)[C@@H](O)c1ccc(F)cc1)c1cccc2ccccc12` (racemic) [Example 140, N-((1RS,2SR)-2-(4-fluorophenyl)-2-hydroxy-1-((2-(trifluoromethyl)phenyl)methyl)ethyl)-1-naphthalenecarboxamide], for which the melting point lay within 193 to 194 °C.
The value for `O=C(N[C@H](Cc1ccccc1C(F)(F)F)[C@@H](O)c1ccc(F)cc1)c1ccc(F)c2ccccc12` (racemic) [Example 141, 4-fluoro-N-((1RS,2SR)-2-(4-fluorophenyl)-2-hydroxy-1-((2-(trifluoromethyl)phenyl)methyl)ethyl)-1-naphthalenecarboxamide] was 200 to 201 °C.
The value for `O=C(N[C@H](Cc1ccccc1C(F)(F)F)[C@@H](O)c1ccc(F)cc1)C1CCCCC1` (racemic) [Example 142, N-((1RS,2SR)-2-(4-fluorophenyl)-2-hydroxy-1-((2-(trifluoromethyl)phenyl)methyl)ethyl)cyclohexanecarboxamide] was 216 to 217 °C.
`O=C(CCCc1ccccc1)N[C@H](Cc1ccccc1C(F)(F)F)[C@@H](O)c1ccc(F)cc1` (racemic) [Example 143, N-((1RS,2SR)-2-(4-fluorophenyl)-2-hydroxy-1-((2-(trifluoromethyl)phenyl)methyl)ethyl)-4-phenylbutyramide] registered a melting point of 161 to 162 °C.
Under `O=C(N[C@H](Cc1ccc(F)cc1)[C@@H](O)c1ccc(F)cc1)c1cccc2ccccc12` (racemic) [Example 144, N-((1RS,2SR)-2-(4-fluorophenyl)-1-((4-fluorophenyl)methyl)-2-hydroxyethyl)-1-naphthalenecarboxamide] stands 199 to 200 °C; under `O=C(N[C@H](Cc1ccc(F)cc1)[C@@H](O)c1ccc(F)cc1)C1CCCCC1` (racemic) [Example 146, N-((1RS,2SR)-2-(4-fluorophenyl)-1-((4-fluorophenyl)methyl)-2-hydroxyethyl)cyclohexanecarboxamide], 203 to 204 °C; under `O=C(CCCc1ccccc1)N[C@H](Cc1ccc(F)cc1)[C@@H](O)c1ccc(F)cc1` (racemic) [Example 147, N-((1RS,2SR)-2-(4-fluorophenyl)-1-((4-fluorophenyl)methyl)-2-hydroxyethyl)-4-phenylbutyramide], 147 to 148 °C.
Under `COc1ccc(C[C@@H](NC(=O)c2cccc3ccccc23)[C@@H](O)c2ccc(F)cc2)cc1` (racemic) [Example 148, N-((1RS,2SR)-2-(4-fluorophenyl)-2-hydroxy-1-((4-(methyloxy)phenyl)methyl)ethyl)-1-naphthalenecarboxamide] stands 198 to 199 °C; under `COc1ccc(C[C@@H](NC(=O)c2ccc(F)c3ccccc23)[C@@H](O)c2ccc(F)cc2)cc1` (racemic) [Example 149, 4-fluoro-N-((1RS,2SR)-2-(4-fluorophenyl)-2-hydroxy-1-((4-(methyloxy)phenyl)methyl)ethyl)-1-naphthalenecarboxamide], 210 to 211 °C.
The value for `COc1ccc(C[C@@H](NC(=O)C2CCCCC2)[C@@H](O)c2ccc(F)cc2)cc1` (racemic) [Example 150, N-((1RS,2SR)-2-(4-fluorophenyl)-2-hydroxy-1-((4-(methyloxy)phenyl)methyl)ethyl)cyclohexanecarboxamide] was 193 to 194 °C; that for `COc1ccc(C[C@@H](NC(=O)CCCc2ccccc2)[C@@H](O)c2ccc(F)cc2)cc1` (racemic) [Example 151, N-((1RS,2SR)-2-(4-fluorophenyl)-2-hydroxy-1-((4-(methyloxy)phenyl)methyl)ethyl)-4-phenylbutyramide] was 130 to 131 °C; that for `CC(C)(C)OC(=O)N[C@H](Cc1ccc(C#N)cc1)[C@@H](O)c1ccc(F)cc1` (racemic) [Example 152, tert-butyl N-[(1RS,2SR)-1-(4-cyanobenzyl)-2-(4-fluorophenyl)-2-hydroxyethyl]carbamate] was 203 to 204 °C.
`N#Cc1ccc(C[C@@H](NC(=O)c2ccc(F)c3ccccc23)[C@@H](O)c2ccc(F)cc2)cc1` (racemic) [Example 153, N-[(1RS,2SR)-1-(4-cyanobenzyl)-2-(4-fluorophenyl)-2-hydroxyethyl]-4-fluoronaphthalene-1-carboxamide] came in with a melting point of 248 to 249 °C.
The compound `CC(C)c1ccc(C[C@@H](NC(=O)c2ccc(F)c3ccccc23)[C@@H](O)c2ccc(F)cc2)cc1` (racemic) [Example 154, 4-fluoro-N-[(1RS,2SR)-2-(4-fluorophenyl)-2-hydroxy-1-(4-isopropylbenzyl)ethyl]naphthalene-1-carboxamide] had a melting point of 189 to 192 °C.
